According to paper PMC11110727, “Exploiting thiol-functionalized benzosiloxaboroles for achieving diverse substitution patterns – synthesis, characterization and biological evaluation of promising antibacterial agents” (RSC Medicinal Chemistry, 2024):
Values after ≈ are worked out from the molar mass of the structure shown. Like-named read-outs stand apart in the source and are kept apart here.

Tests used:
S. marcescens ATCC 13880 = assay: Antibacterial activity: MIC/MBC, MIC with PAβN, disc-diffusion; format: cell-based, Serratia marcescens; conditions: Serratia marcescens, ATCC13880
Summary of the method: (§1)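 Read-outs are disc-diffusion zones, broth-microdilution MICs and bactericidal concentrations (MBC), following EUCAST and CLSI guidance. The efflux contribution was probed by rerunning MICs with 20 μg mL^−1 PAβN in MgSO4-supplemented (1 mM) Mueller–Hinton II broth, a ≥4-fold decrease being significant.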

[1] = tested on: S. maltophilia ATCC 12714; assay: as above; format: cell-based, Stenotrophomonas maltophilia; conditions: Stenotrophomonas maltophilia, ATCC12714
Summary of the method: as §1

S. aureus NMI 664 K MRSA = assay: Antibacterial activity against clinical MRSA: MIC/MBC; format: cell-based; conditions: Staphylococcus aureus
Summary of the method: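 Strains were subcultured twice for 24–48 h at 30 °C, on TSA for bacteria and Sabouraud dextrose agar for yeasts. Disc-diffusion and MIC followed EUCAST/CLSI recommendations, and MBC/MFC followed CLSI. Compounds were dissolved in DMSO, with fluconazole or linezolid as references.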

[2] = tested on: Human normal lung fibroblasts MRC-5; assay: MTT-based viability (cytotoxicity) assay; conditions: for IC50: Homo sapiens, MRC5, 48 h
Summary of the method: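 MRC-5 pd30 human lung fibroblasts in supplemented MEME at 37 °C, 5% CO2; viability by MTT, absorbance 570 nm, triplicate, as percent of control cells. Selectivity index taken as IC50/MIC against S. aureus MRSA strains.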

[3] = tested on: Staphylococcus aureus, MSSA and MRSA strains; assay: Antibacterial activity against S. aureus strains (text summaries); format: cell-based
Protocol: Direct antimicrobial activity was determined against the following standard strains: (1) Gram-positive cocci: methicillin-sensitive Staphylococcus aureus ATCC 6538P (MSSA), methicillin-resistant S. aureus subsp. aureus ATCC 43300 (MRSA), S. epidermidis ATCC 12228, Enterococcus faecium ATCC 6057, E. faecalis ATCC 29212, Bacillus subtilis ATCC 6633; (2) Gram-negative bacteria from Enterobacteriales order: Klebsiella pneumoniae ATCC 13883, Escherichia coli ATCC 25922, Enterobacter cloacae DSM 6234, Proteus mirabilis ATCC 12453, Serratia marcescens ATCC 13880; (3) Gram-negative non-fermentative rods: Acinetobacter baumannii ATCC 19606, Pseudomonas aeruginosa ATCC 27853, Stenotrophomonas maltophilia ATCC 12714, S. maltophilia ATCC 13637, Burkholderia cepacia ATCC 25416, Bordetella bronchiseptica ATCC 4617; (4) yeasts: Candida albicans ATCC 90028, C. krusei ATCC 6258, C. parapsilosis ATCC 22019, C. tropicalis (Castellani) Berkhout ATCC 750, C. tropicalis IBA 171, C. guilliermondii IBA 155, and Saccharomyces cerevisiae ATCC 9763. Moreover, 5 clinical strains of methicillin-resistant S. aureus were also included: NMI 664 K, NMI 1576 K, NMI 1712 K, NMI 1991 K, and NMI 2541 K. All strains were stored at −80 °C. Prior to testing, each bacterial strain was subcultured twice on tryptic soy agar TSA (bioMerieux) medium and yeast strains on Sabouraud dextrose agar (bioMerieux) for 24–48 h at 30 °C to ensure viability. The antimicrobial activity was evaluated as previously described[26] by the disc-diffusion method and the MIC determination assays according to the EUCAST (ref. [71] and [72]) and CLSI (ref. [53] and [73]) recommendations. Assessment of bactericidal (MBC) and fungicidal (MFC) activities was performed according to the CLSI recommendations.[54,74] The following reference agents were used: fluconazole (in the case of fungi), linezolid (for Gram-positive bacteria), and nitrofurantoin (for Gram-negative rods). The new benzosiloxaboroles were dissolved in DMSO (Sigma).

Structure (SMILES) | MIC (S. marcescens ATCC 13880) | MIC [1] | MIC (S. aureus NMI 664 K MRSA; MRSA) | MBC (S. aureus NMI 664 K MRSA; MRSA, read-out: MBC (first MBC where Eagle effect)) | MBC (S. aureus NMI 664 K MRSA; MRSA, read-out: second MBC (Eagle effect)) | viability of MRC-5 ([2]; 6.25 µg·mL−1, 48 h) | viability of MRC-5 ([2]; 12.5 µg·mL−1, 48 h) | viability of MRC-5 ([2]; 25 µg·mL−1, 48 h) | viability of MRC-5 ([2]; 50 µg·mL−1, 48 h) | viability of MRC-5 ([2]; 100 µg·mL−1, 48 h) | viability of MRC-5 ([2]; 200 µg·mL−1, 48 h) | viability of MRC-5 ([2]; 400 µg·mL−1, 48 h) | IC50 [2] | Eagle effect (paradoxical growth) during MBC determination ([3]; S. aureus ATCC 6538P and five MRSA clinical strains) | MIC ([3]; Staphylococcus aureus, both MSSA and MRSA strains, read-out: MIC values against Staphylococcus aureus) | MIC (S. marcescens ATCC 13880; S. marcescens ATCC 13880, read-out: MIC) | MIC ([1]; S. maltophilia ATCC 12714, read-out: MIC) | MBC (S. aureus NMI 664 K MRSA; NMI 664 K MRSA, read-out: MBC (first MBC where Eagle effect)) | MIC (S. aureus NMI 664 K MRSA; NMI 664 K MRSA, read-out: MIC) | MBC ([3]; Staphylococcus aureus, lowest MBC values)
CCOP(=O)(OCC)Sc1c(F)cc2c(c1F)[Si](C)(C)OB2O [Compound 24, S-(5,7-Difluoro-3-hydroxy-1,1-dimethyl-1,3-dihydrobenzo[c][1,2,5]oxasilaborol-6-yl) O,O-diethyl phosphorothioate] | > 400 µg/mL | > 400 µg/mL | 6.25 µg/mL (≈ 16.4 µM) | 25 µg/mL (≈ 65.4 µM) | > 400 µg/mL | 95.5±1.4 % of control ± SD | 83.9±0.1 % of control ± SD | 81.6±2.6 % of control ± SD | 78.2±3.0 % of control ± SD | 73.0±4.0 % of control ± SD | 76.5±3.8 % of control ± SD | 60.5±3.8 % of control ± SD | > 400 µg/mL | Eagle effect | 1.56 to 12.5 µg/mL (≈ 4.08 to 32.7 µM) |  |  |  |  | 
C[Si]1(C)OB(O)c2ccc(SC(=O)c3ccc(C(F)(F)F)cc3)c(F)c21 [Compound 25, S-(7-Fluoro-3-hydroxy-1,1-dimethyl-1,3-dihydrobenzo[c][1,2,5]oxasilaborol-6-yl) 4-(trifluoromethyl)benzothioate] |  |  |  |  |  |  |  |  |  |  |  |  | 112 µg/mL (≈ 279 µM) |  |  | > 50 µg/mL | > 50 µg/mL | 25 µg/mL (≈ 62.5 µM) | 12.5 µg/mL (≈ 31.2 µM) | 25 to 50 µg/mL (≈ 62.5 to 125 µM)
